Assay: Sensory evaluation of sweetness (sweetening potency) relative to sucrose
Conditions: for Sweetness (sweetening potency): sensory evaluation; for sweetness potency: values compared to sweetening potency of a 4% aqueous solution of sucrose
Description: For example, the sweetness of N-[N-[3-(3-hydroxy-4-methoxyphenyl)-3-methylbutyl]-L-α-aspartyl]-L-phenylalanine 1-methyl ester was approximately 70000 times that of sugar, the sweetness of N-[N-[3-(3-methyl-4 hydroxyphenyl)-3-methylbutyl]-L-α-aspartyl]-L-phenylalanine 1-methyl ester was approximately 70000 times that of sugar, the sweetness of N-[N-[3-(3-hydroxy-4-methylphenyl)-3-methylbutyl]-L-α- aspartyl]-L-phenylalanine 1-methyl ester was approximately 60000 times that of sugar, and the sweetness of N-[N-((RS)-3-(3 hydroxy-4-methoxyphenyl) butyl]-L-α-aspartyl]-L-phenylalanine 1-methyl ester was approximately 50000 times that of sugar. […] Sensory evaluations can be performed as described in, for example, B. T. Carr, S. D. Pecore, K. M. Gibes and G. E. Dubois, “Sensory Methods for Sweetner Evaluation” in Flavor Measurement, edited by C. T. Ho and C. H. Manley, Marcel Decker, Inc. (1992).

COC(=O)[C@H](Cc1ccccc1)NC(=O)[C@H](CC(=O)O)NCCC(C)(C)c1ccc(C)c(O)c1 [Compound 19, N-[N-[3-(3-hydroxy-4-methylphenyl)-3-methylbutyl]-L-α-aspartyl]-L-phenylalanine 1-methyl ester]
Sweetness (sweetening potency): approximately 60000 times the sweetness of sugar | Sweetness (sweetening potency) (listed as Example 22): 60000 times the sweetness of sugar | sweetness potency: 60000

COC(=O)[C@H](Cc1ccccc1)NC(=O)[C@H](CC(=O)O)NCCC(C)(C)c1ccc2c(c1)OCO2 [Compound 16, N-[N-[3-(3,4-methylenedioxyphenyl)-3-methylbutyl]-L-α-aspartyl]-L-phenylalanine-1-methyl ester]
Sweetness (sweetening potency): 30000 times the sweetness of sugar | sweetness potency: 30000

CCOC(=O)[C@H](Cc1ccccc1)NC(=O)[C@H](CC(=O)O)NCCC(C)(C)c1ccc(OC)c(O)c1 [Compound 21, N-[N-[3-(3-hydroxy-4-methoxyphenyl)-3-methylbutyl]-L-α-aspartyl]-L-phenylalanine 1-ethyl ester]
Sweetness (sweetening potency): 15000 times the sweetness of sugar | sweetness potency: 15000

COC(=O)[C@H](Cc1ccccc1)NC(=O)[C@H](CC(=O)O)NCCC(C)(C)c1ccc(OC)cc1 [Compound 7, N-[N-[3-(4-methoxyphenyl)-3-methylbutyl]-L-α-aspartyl)-L-phenylalanine 1-methyl ester]
Sweetness (sweetening potency): 25000 times the sweetness of sugar | sweetness potency: 25000

COC(=O)[C@H](Cc1ccccc1)NC(=O)[C@H](CC(=O)O)NCCC(C)(C)c1ccc(OC)c(O)c1
Sweetness (sweetening potency): approximately 70000 times the sweetness of sugar

COC(=O)[C@H](Cc1ccccc1)NC(=O)[C@H](CC(=O)O)NCCC(C)(C)c1ccccc1O [Compound 13, N-[N-[3-(2-hydroxyphenyl)-3-methylbutyl]-L-α-aspartyl]-L-phenylalanine 1-methyl ester]
Sweetness (sweetening potency): 8000 times the sweetness of sugar | sweetness potency: 8000

COC(=O)[C@H](Cc1ccccc1)NC(=O)[C@H](CC(=O)O)NCCC(C)(C)c1ccc(OC)c(C)c1 [Compound 17, N-[N-[3-(3-methyl-4-methoxyphenyl)-3-methylbutyl]-L-α-aspartyl]-L-phenylalanine 1-methyl ester]
Sweetness (sweetening potency): 30000 times the sweetness of sugar | sweetness potency: 30000

COC(=O)[C@H](Cc1ccccc1)NC(=O)[C@H](CC(=O)O)NCC(C)Cc1ccc(OC)c(O)c1 (mixture of isomers) [Compound 12, N-[N-[3-(3-hydroxy-4-methoxyphenyl)-(RS)-2-methylpropyl)-L-α-aspartyl)-L-phenylalanine 1-methyl ester]
Sweetness (sweetening potency): 5000 times the sweetness of sugar | sweetness potency: 5000

COC(=O)[C@H](Cc1ccccc1)NC(=O)[C@H](CC(=O)O)NCCC(C)c1ccc(O)c(C)c1 (mixture of isomers) [Compound 11, N-[N-[(RS)-3-(3-methyl-4-hydroxyphenyl)butyl]-L-α-aspartyl]-L-phenylalanine 1-methyl ester]
Sweetness (sweetening potency): 50000 times the sweetness of sugar | sweetness potency: 50000

COC(=O)[C@H](Cc1ccccc1)NC(=O)[C@H](CC(=O)O)NCCC1(c2ccc(O)c(OC)c2)CCCC1 [Compound 20, N-[N-[2-[1-(3-methoxy-4-hydroxyphenyl)cyclopentyl]ethyl]-L-α-aspartyl]-L-phenylalanine 1-methyl ester]
Sweetness (sweetening potency): 30000 times the sweetness of sugar | sweetness potency: 30000

COC(=O)[C@H](Cc1ccccc1)NC(=O)[C@H](CC(=O)O)NCCC(C)c1ccc(O)c(OC)c1 (mixture of isomers) [Compound 3, N-[N-[(RS)-3-(3-methoxy-4-hydroxyphenyl)butyl]-L-α-aspartyl]-L-phenylalanine 1-methyl ester]
Sweetness (sweetening potency): 30000 times the sweetness of sugar | sweetness potency: 30000

COC(=O)[C@H](Cc1ccc(O)cc1)NC(=O)[C@H](CC(=O)O)NCCC(C)c1ccc(O)c(OC)c1 (mixture of isomers) [Compound 5, N-[N-[(RS)-3-(3-methoxy-4-hydroxyphenyl)butyl]-L-α-aspartyl]-L-tyrosine 1-methyl ester]
Sweetness (sweetening potency): 25000 times the sweetness of sugar | sweetness potency: 25000

COC(=O)[C@H](CC1CCCCC1)NC(=O)[C@H](CC(=O)O)NCCC(C)c1ccc(OC)c(O)c1 (mixture of isomers) [Compound 6]
Sweetness (sweetening potency): 40000 times the sweetness of sugar | sweetness potency: 40000

COC(=O)[C@H](Cc1ccccc1)NC(=O)[C@H](CC(=O)O)NCCC(C)c1ccc(OC)cc1 (mixture of isomers) [Compound 1, N-[N-[(RS)-3-(4-methoxyphenyl)butyl]-L-α-aspartyl]-L-phenylalanine 1-methyl ester]
Sweetness (sweetening potency): 16000 times the sweetness of sugar | sweetness potency: 16000

COC(=O)[C@H](Cc1ccccc1)NC(=O)[C@H](CC(=O)O)NCCC(C)(C)c1ccc(OC)cc1O [Compound 14, N-[N-[3-(2-hydroxy-4-methoxyphenyl)-3-methylbutyl]-L-α-aspartyl]-L-phenylalanine 1-methyl ester]
Sweetness (sweetening potency): 20000 times the sweetness of sugar | sweetness potency: 20000

COC(=O)[C@H](Cc1ccccc1)NC(=O)[C@H](CC(=O)O)NCCC(C)(C)c1ccc(C)cc1O [Compound 15, N-[N-[3-(2-hydroxy-4-methylphenyl)-3-methylbutyl]-L-α-aspartyl]-L-phenylalanine 1-methyl ester]
Sweetness (sweetening potency): 25000 times the sweetness of sugar | sweetness potency: 25000

COC(=O)[C@H](Cc1ccccc1)NC(=O)[C@H](CC(=O)O)NCCC(C)(C)c1ccc(O)c(O)c1 [Compound 23, N-[N-[3-(3,4-dihydroxyphenyl)-3-mehylbutyl]-L-α-aspartyl]-L-phenylalanine 1-methyl ester]
Sweetness (sweetening potency): 50000 times the sweetness of sugar | sweetness potency: 50000

COC(=O)[C@H](Cc1ccccc1)NC(=O)[C@H](CC(=O)O)NCCC(C)c1cccc(O)c1 (mixture of isomers) [Compound 2, N-[N-[(RS)-3-(3-hydroxyphenyl)butyl]-L-α-aspartyl]-L-phenylalanine 1 methyl ester]
Sweetness (sweetening potency): 12000 times the sweetness of sugar | sweetness potency: 12000

COC(=O)[C@H](Cc1ccccc1)NC(=O)[C@H](CC(=O)O)NCCC(C)(C)c1ccc(O)c(C)c1 [Compound 18, N-[N-[3-(3-methyl-4-hydroxyphenyl)-3-methylbutyl)-L-α-aspartyl]-L-phenylalanine 1-methyl ester]
Sweetness (sweetening potency): approximately 70000 times the sweetness of sugar | Sweetness (sweetening potency) (listed as Example 11): 70000 times the sweetness of sugar | sweetness potency: 70000

COC(=O)[C@](C)(Cc1ccccc1)NC(=O)[C@H](CC(=O)O)NCCC(C)(C)c1ccc(OC)c(O)c1 [Compound 22]
Sweetness (sweetening potency): 40000 times the sweetness of sugar | sweetness potency: 40000

COC(=O)[C@H](Cc1ccccc1)NC(=O)[C@H](CC(=O)O)NCCC(C)c1ccc(OC)c(O)c1 (mixture of isomers) [Compound 4, N-[N-[(RS)-3-(3-hydroxy-4-methoxyphenyl)butyl]-L-α-aspartyl]-L-phenylalanine 1-methyl ester]
Sweetness (sweetening potency): approximately 50000 times the sweetness of sugar | Sweetness (sweetening potency) (listed as Example 17): 50000 times the sweetness of sugar | sweetness potency: 50000
